Assays:
[1] = Light-resistance test: residual percentage of dye in thin layer on glass after 25 min exposure to 500 W xenon lamp; type: physicochemical; settings: 7 cm, from transmittance at absorption maximum; for Residual percentage of monomethine cyanine dye, With no light-resistant improver: control thin layer without improver; for Residual percentage of monomethine cyanine dye, With light-resistant improver: thin layer with formazan nickel complex of Chemical Formula 49 (15 mg dye + 2 mg improver in 3 ml TFP)
Protocol: Fifteen milligrams of either of the monomethine cyanine dyes in Table 2 was added to three milliliters of TFP, and as a light-resistant improver two milligrams of the formazan nickel complex represented by Chemical Formula 49 disclosed in Japanese Patent Application No. 163,036/99, titled “Formazan metal complexes” applied for by the same applicant as the present invention, and the contents were dissolved in the solvent with a 5-minute ultrasonic energization at ambient temperature. Thereafter, in a usual manner, a prescribed volume of the resulting solution was dropped on either surface of a polished glass substrate, 5 cm×5 cm, while the glass substrate was rotated at a rotation rate of 1,000 rpm for one minute to uniformly coat the solution thereupon, and sequentially blown with hot air and cold air to dry the coated solution. [drawing 10]
The resulting glass substrates coated with the monomethine cyanine dyes were measured for transmittance (T0) at the wavelengths of their absorption maxima, and then fixed to a position 7 cm apart from a 500 W xenon lamp and exposed with the light for 25 min while cold air was blowing to the substrates. Immediately after that, the resulting substrates were remeasured for transmittance (T) at the wavelengths of the absorption maxima of the monomethine cyanine dyes, and the transmittances of T and T0 for each monomethine cyanine dye were substituted for the Equation 1 to calculate the residual percentage (%) of each monomethine cyanine dye. In parallel, control systems with no light-resistant improver for each monomethine cyanine dye were provided and treated similarly as above. [formula]
As shown in the results in Table 2, in the systems with no light-resistant improver, up to 74% of the monomethine cyanine dye had changed with only a 25-min exposure of light to become incapable of exerting its inherent optical properties. However, in the systems with the formazan metal complex represented by Chemical Formula 49, all of the monomethine cyanine dyes still remained intact up to a level of over 93% without changing even after the exposure of light.

[2] = Visible absorption spectra of monomethine cyanine dyes in methanol solution and as thin layer on glass substrates; type: physicochemical; settings: for Wavelength of absorption maximum, Solution: dissolved in methanol; for Wavelength of absorption maximum, Thin layer: thin layer formed on glass substrate
Protocol: The monomethine cyanine dyes in Table 1 were measured for their visible absorption spectra when dissolved in methanol and formed on glass substrates, respectively. The results are tabulated in Table 1, and the visible absorption spectrum of the monomethine cyanine dye represented by Chemical Formula 17 when in a liquid form and in a thin-layer form are shown in FIG. 1.
As evident from the results in Table 1 and FIG. 1, the monomethine cyanine dyes tested had absorption maxima in relatively short wavelength visible regions, particularly, at wavelengths of 450 nm or less both in the forms of solution and thin layer. Most of these monomethine cyanine dyes had absorption maxima at wavelengths of 350-400 nm when in solution and thin layer forms, and the ends of their absorption maxima in their longer wavelength regions extended up to about 450 nm when in a thin layer form. The fact evidences that the light absorbents, comprising the monomethine cyanine dyes of the present invention, have sensitivity to a relatively short-wavelength visible light, and most of the light absorbents substantially absorb laser beams with wavelengths of 450 nm or less in their longer wavelength regions with their absorption maxima.

| SMILES | Residual percentage of monomethine cyanine dye, With no light-resistant improver [1] | Residual percentage of monomethine cyanine dye, With light-resistant improver [1] | Wavelength of absorption maximum, Solution [2] | Wavelength of absorption maximum, Thin layer [2] |
| --- | --- | --- | --- | --- |
| CC[n+]1c(C=C2Oc3ccc(-c4ccccc4)cc3N2C)oc2ccccc21.[I-] [Chemical Formula 6] | 98.7% | 100.0% | 380 nm | 371 nm |
| CC[n+]1c(C)csc1C=C1OC=C(C)N1C.[I-] [Chemical Formula 17] | 80.6% | 100.0% | 379 nm | 375 nm |
| CN1C(=CC2=[N+](C)c3ccccc3C2(C)C)Oc2ccccc21.[I-] [Chemical Formula 36] | 26.0% | 93.2% | 396 nm | 440 nm |

From US20030181727A1, “Cyanine dyes” (Kabushiki Kaisha Hayashibara Seibutsu Kagaku Kenky, priority 1999, published 2003)
